Test results: patent US7888523B2, “Preparation of platinum(II) complexes” (Platco Technologies (Proprietary) Limited, priority 2004, dated 2011)

What was measured:
cervical cancer cells = assay: Anticancer testing, inhibition of cervical cancer cells; assay type: cell-based; conditions: for inhibition on cervical cancer cells: medium containing 10 mM glutathione
Description: (§1) Anticancer testing on the halogenoplatinum(II) complex of Example 8 was performed and compared with cisplatin. […] The corresponding values for cisplatin are 85.6% and 93.2%. The corresponding data on cervical cancer cells are 88.5 and 95.9% at 10 and 100 μM solutions. The corresponding values for cisplatin are 85.4 and 95% respectively. A further study in which 100 μM solutions were used in a medium containing 10 mM glutathione, the halogenoplatinum(II) complex performed even better, viz.

colon cancer cells = assay: Anticancer testing, inhibition of colon cancer cells; assay type: cell-based; conditions: for inhibition on colon cells: medium containing 10 mM glutathione
Description: as §1

[1] = Anti-cancer properties (test not specified); conditions: statement in words, no test details
breast cancer cells = assay: Anticancer testing, inhibition of breast cancer cells; assay type: cell-based; conditions: 100 μM solution, medium containing 10 mM glutathione
Description: as §1

SMILES	percentage inhibition on cervical cancer cells (cervical cancer cells; 10 μM solution) [%]	percentage inhibition on cervical cancer cells (cervical cancer cells; 100 μM solution) [%]	inhibition on cervical cancer cells (cervical cancer cells; 100 μM solution) [%]	percentage inhibition on colon cancer cells (colon cancer cells; 10 μM solution) [%]	percentage inhibition on colon cancer cells (colon cancer cells; 100 μM solution) [%]	inhibition on colon cells (colon cancer cells; 100 μM solution) [%]	anti-cancer properties [1]	inhibition on breast cancer cells (breast cancer cells) [%]
CSCc1nccn1C.[Cl][Pt][Cl] [Pt(mmtei)Cl2, bis-chloro-(1-methyl-2-methylthiomethyl-imidazole)platinum(II)]	88.5	95.9	99.3	92.8	97.0	98.2	exceptional anti-cancer properties	66.1
N.N.[Cl][Pt][Cl] [cisplatin, reference compound]	–	95	58.6	85.6	93.2	48.0	–	14
